Assays:
liver cancer [1] = assay: Liver cancer development in DMBA-treated mice fed high-fat diets, antibiotic given in drinking water; format: in vivo; details: high-fat diet, antibiotic in drinking water from 13 weeks old, dissected at the 30th week
From the text: An acetone solution containing 0.5% of the carcinogenic substance DMBA (7,12-dimethylberiz[a]anthracene) was applied once to the backs of wild-type (C57BL/6) neonatal mice. The neonatal mice were raised together with their mother mouse by feeding with normal diets (ND) or high-fat diet (HFD) until 4 weeks old. The high-fat diets used were D12492 (Rodent Diet with 60% kcal % Fat; Research Diets, Inc., USA). The neonatal mice were weaned at 4 weeks old and subsequently raised with normal diets or high-fat diet. At 30 weeks old, their livers and lungs were excised, and the presence or absence of cancer development was analyzed. The average body weight of the mice at the time of dissection was 33 g for the mice fed normal diets and 51 g for the mice fed high-fat diets. The mice fed high-fat diets had approximately 1.5 times the body weights of the mice fed normal diets.
DMBA was applied to wild-type neonatal mice, followed by high-fat diet feeding. From 13 weeks old, an antibiotic cocktail (4Abx, antibiotic cocktail administration group) or vancomycin (VCM, vancomycin administration group) mixed with drinking water was administered to the mice. At the 30th week after the start of the raising, their livers were excised, and liver cancer development was analyzed. […]
The mice of each group were dissected at the 30th week, and liver cancer development was analyzed (FIGS. 3C and 3D).

gut microbiota = assay: Gut microbiota analysis of feces by PCR of 16S rRNA gene; format: in vivo, mice
Method: In this Example, in order to search for an intestinal bacterium related to cancer development, how the gut microbiota was atlered was analyzed (FIG. 4). In the experimental schedule shown in FIG. 3A, 3 groups were used: a group fed normal diets, a group fed high-fat diets, and a group fed high-fat diets and also given vancomycin. At the 30th week after the start of the raising, their feces were recovered, and the gut microbiota was analyzed.
The gut microbiota was identified by PCR analysis (Non Patent Literatures 11 and 12). Specifically, DNA was extracted from the feces and purified. The gene encoding 16S rRNA in many types of bacteria was amplified by PCR using universal primers. The V1-V4 hypervariable regions were further amplified, followed by identification.

intestinal bacteria = assay: Level of gene encoding intestinal bacterial 16S rRNA after antibiotic administration; format: in vivo; details: 17 weeks after antibiotic administration, 30 weeks after birth; high-fat diet; in drinking water; 3 mice per group
Method: DMBA was applied to wild-type neonatal mice, followed by high-fat diet feeding. From 13 weeks old, an antibiotic cocktail (4Abx, antibiotic cocktail administration group) or vancomycin (VCM, vancomycin administration group) mixed with drinking water was administered to the mice. At the 30th week after the start of the raising, their livers were excised, and liver cancer development was analyzed. On the other hand, the raising of a control group was continued in the same way as the aforementioned raising up to the 13th week. The antibiotic cocktail contained ampicillin (1 g/l), neomycin (1 g/l), metronidazole (1 g/l), and vancomycin (500 mg/l). In the case of administering vancomycin alone, 500 mg/l vancomycin was administered.

liver cancer [2] = assay: Liver cancer development in mice fed high-fat diets and given antibiotic cocktail, with oral deoxycholic acid; format: in vivo; details: 40 μg/g body weight orally three times a week, high-fat diet + antibiotic cocktail
Method: From the 13th week after the start of the raising, the antibiotic cocktail was administered to mice fed high-fat diets, which were then further raised. To these mice, 40 μg/g body weight of deoxycholic acid (DCA) or only a vehicle as a control was orally administered three times a week (FIG. 5A). […] The cancer was rarely developed in the control mouse group given only the vehicle, and even if the cancer was developed, its tumor size was small. On the other hand, the deoxycholic acid administration group had multiple cancer (25 or more tumors per individual), and also, its size was large.

Compound	liver cancer development (tumor number and size) as compared with the control (liver cancer [1])	Gram-negative microbiota, proportion on average (gut microbiota; HFD+VCM group, average (FIG. 4)) [%]	cluster XI of the genus Clostridium in gut microbiota (gut microbiota; feces at the 30th week, high-fat diets + vancomycin, n=2) [%]	amount of intestinal bacteria (level of gene encoding intestinal bacterial 16s rRNA) (intestinal bacteria)	liver tumor size (liver cancer [2]; n=3)	tumor number per individual (liver) (liver cancer [2]; n=3) [tumors per individual]	liver tumor development (liver cancer [2]; vs vehicle)
CN[C@H](CC(C)C)C(=O)N[C@H]1C(=O)N[C@@H](CC(N)=O)C(=O)N[C@H]2C(=O)N[C@H]3C(=O)N[C@H](C(=O)N[C@H](C(=O)O)c4cc(O)cc(O)c4-c4cc3ccc4O)[C@H](O)c3ccc(c(Cl)c3)Oc3cc2cc(c3O[C@@H]2O[C@H](CO)[C@@H](O)[C@H](O)[C@H]2O[C@H]2C[C@](C)(N)[C@H](O)[C@H](C)O2)Oc2ccc(cc2Cl)[C@H]1O [vancomycin]	developed no liver cancer or developed liver cancer with a smaller tumor number and a smaller size	99	0	decreased into a very small level	–	–	–
C[C@H](CCC(=O)O)[C@H]1CC[C@H]2[C@@H]3CC[C@@H]4C[C@H](O)CC[C@]4(C)[C@H]3C[C@H](O)[C@]12C [deoxycholic acid]	–	–	–	–	large	≥ 25	developed a large number of liver tumors
